Data: patent publication US12582638B2, “Pharmaceutical composition for treating cancer, containing mTOR-signaling inhibitor as active ingredient” (KOREA ADVANCED INSTITUTE OF SCIENCE AND TECHNOLOGY, priority 2020, dated 2026)

How the values were obtained:
Experiment in all cases: Cell viability, CellTiterGlo, 72 hours
Assay type in all cases: cell-based
Caki-1 = details: Homo sapiens, Caki-1 cells, Kidney
Protocol: (§1) In addition to the colorectal cells, 120 cancer cell lines treated with various concentrations of lomitapide were assayed for viability. To analyze cell viability, the cells were incubated with lomitapide at 37° C. for 72 hours in a 5% or 10% CO2 atmosphere and then equilibrated at room temperature for 1 hour, followed by addition of CellTiterGlo reagent (Promega). One hour later, luminescence was measured to calculate cell viability (%). The 120 cell lines were purchased from ATCC (American Type Culture Collection, Virginia, USA).

HCC38 = details: Homo sapiens, HCC38 cells, Breast
Protocol: as §1

SCLC-21H = details: Homo sapiens, SCLC-21H cells, Lung
Protocol: as §1

OVK18 = OVK18 cells, Ovary
Protocol: as §1

SNU840 = details: SNU-840, SNU840 cells, Ovary
Protocol: as §1

H1299 = details: Homo sapiens, NCI-H1299, H1299 cells, Lung
Protocol: as §1

Colo 205 = details: Homo sapiens, Colo 205 cells, Colon
Protocol: as §1

MDA MB 435 = details: Homo sapiens, MDA MB 435 cells, Skin
Protocol: as §1

NCI-H292 = details: Homo sapiens, NCI-H292 cells, Lung
Protocol: as §1

COR-L279 = details: Homo sapiens, COR-L279 cells, Lung
Protocol: as §1

LOU-NH91 = LOU-NH91 cells, Lung
Protocol: as §1

OV56 = OV56 cells, Ovary
Protocol: as §1

RERF-LC-MS = RERF-LC-MS cells, Lung
Protocol: as §1

EFM-19 = details: Homo sapiens, EFM-19 cells, Breast
Protocol: as §1

BT-20 = details: Homo sapiens, BT-20 cells, Breast
Protocol: as §1

LP-1 = details: Homo sapiens, LP-1 cells, Blood
Protocol: as §1

M07e = details: M-07e, M07e cells, Blood
Protocol: as §1

OCI-LY19 = details: Homo sapiens, OCI-LY19 cells, Blood
Protocol: as §1

SJSA-1 = details: Homo sapiens, SJSA-1 cells, Bone
Protocol: as §1

PC3 = details: Homo sapiens, PC-3, PC3 cells, Prostate
Protocol: as §1

DU-145 = details: Homo sapiens, DU-145 cells, Prostate
Protocol: as §1

SNU-1 = details: Homo sapiens, SNU1, SNU-1 cells, Stomach
Protocol: as §1

NCI-H1581 = details: Homo sapiens, NCI-H1581 cells, Lung
Protocol: as §1

NCI-H2286 = details: Homo sapiens, NCI-H2286 cells, Lung
Protocol: as §1

H460 = details: Homo sapiens, NCI-H460, H460 cells, Lung
Protocol: as §1

HT-1080 = details: Homo sapiens, HT-1080 cells, Fibrosarcoma
Protocol: as §1

OCI-AML3 = details: Homo sapiens, OCI-AML-3, OCI-AML3 cells, Blood
Protocol: as §1

U-937 = details: Homo sapiens, U-937 cells, Blood
Protocol: as §1

U87MG = details: Homo sapiens, U-87 MG, U87MG cells, Brain
Protocol: as §1

SK-OV3 = details: Homo sapiens, SK-OV-3, SK-OV3 cells, Ovary
Protocol: as §1

HT-29 = details: Homo sapiens, HT-29 cells, Colon
Protocol: as §1

NCI-H2110 = NCI-H2110 cells, Lung
Protocol: as §1

Mia PaCA 2 = details: Homo sapiens, Mia PaCA 2 cells, Pancreas
Protocol: as §1

MEC-1 = details: Homo sapiens, MEC1, MEC-1 cells, Blood
Protocol: as §1

SK-N-MC = details: Homo sapiens, SK-N-MC cells, Brain
Protocol: as §1

RL95-2 = details: Homo sapiens, RL95-2 cells, Endometrium
Protocol: as §1

HCC827 = details: Homo sapiens, HCC827 cells, Lung
Protocol: as §1

K562 = details: Homo sapiens, K562 cells, Blood
Protocol: as §1

U118MG = details: Homo sapiens, U-118-MG, U118MG cells, Brain
Protocol: as §1

## O=C(NC1CCN(CCCCC2(C(=O)NCC(F)(F)F)c3ccccc3-c3ccccc32)CC1)c1ccccc1-c1ccc(C(F)(F)F)cc1 [lomitapide, N-(2,2,2-trifluoroethyl)-9-[4-[4-[[[4′-(trifluoromethyl)[1,1′-biphenyl]2-yl]carbonyl]amino]-1-piperidinyl]butyl]-9H-fluoren-9-carboxamide]
Caki-1
  IC50: 3.6 µM
HCC38
  IC50: 6 µM
SCLC-21H
  IC50: 3 µM
OVK18
  IC50: 3.3 µM
SNU840
  IC50: 2.3 µM
H1299
  IC50: 4.8 µM
Colo 205
  IC50: 3.4 µM
MDA MB 435
  IC50: 3 µM
NCI-H292
  IC50: 3 µM
COR-L279
  IC50: 2.7 µM
LOU-NH91
  IC50: 5.7 µM
OV56
  IC50: 4.8 µM
RERF-LC-MS
  IC50: 3.2 µM
EFM-19
  IC50: 3.6 µM
BT-20
  IC50: 5 µM
LP-1
  IC50: 5.4 µM
M07e
  IC50: 4.2 µM
OCI-LY19
  IC50: 2.8 µM
SJSA-1
  IC50: 3.1 µM
PC3
  IC50: 4.3 µM
DU-145
  IC50: 5 µM
SNU-1
  IC50: 2.8 µM
NCI-H1581
  IC50: 3.7 µM
NCI-H2286
  IC50: 3.4 µM
H460
  IC50: 3.8 µM
HT-1080
  IC50: 3.9 µM
OCI-AML3
  IC50: 2.1 µM
U-937
  IC50: 2.3 µM
U87MG
  IC50: 3.1 µM
SK-OV3
  IC50: 3.3 µM
HT-29
  IC50: 1.6 µM
NCI-H2110
  IC50: 3.3 µM
Mia PaCA 2
  IC50: 2.9 µM
MEC-1
  IC50: 3.3 µM
SK-N-MC
  IC50: 2.4 µM
RL95-2
  IC50: 3.2 µM
HCC827
  IC50: 4.1 µM
K562
  IC50: 2.1 µM
U118MG
  IC50: 2.5 µM
